Assay results: PMC6009921, “Carbon- versus sulphur-based zinc binding groups for carbonic anhydrase inhibitors?” (Journal of Enzyme Inhibition and Medicinal Chemistry, 2018)
Where two headings read alike, the source gives them in different places.

Assays:
Test in all cases: stopped-flow CO2 hydration
Assay type in all cases: biochemical
hCA VA = target: T1, hCA VA (Homo sapiens, UniProt P35218); details: read-out: KI (μM)^a^,^b / hCA VA
T1 construct: gene CA5A; recombinant, obtained in-house
Source text: stopped-flow CO2 hydration on hCA VA

hCA II = target: T2, hCA II (Homo sapiens, UniProt P00918)
T2 construct: gene CA2; recombinant, obtained in-house

hCA VII = target: T3, hCA VII (Homo sapiens, UniProt P43166); details: read-out: KI (μM)^a^,^b / hCA VII
T3 construct: gene CA7; recombinant, obtained in-house
T3 sequence (P43166 whole entry): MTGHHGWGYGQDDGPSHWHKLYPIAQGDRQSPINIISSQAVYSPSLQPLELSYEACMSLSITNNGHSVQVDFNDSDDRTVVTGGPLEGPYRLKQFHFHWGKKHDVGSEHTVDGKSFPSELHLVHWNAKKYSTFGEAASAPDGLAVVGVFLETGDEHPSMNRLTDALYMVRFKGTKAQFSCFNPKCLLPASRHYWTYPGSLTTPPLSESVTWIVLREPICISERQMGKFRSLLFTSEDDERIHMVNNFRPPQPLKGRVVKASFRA

mCA XIII = target: T4, mCA XIII (Mus musculus, UniProt Q9D6N1); details: read-out: KI (μM)^a^,^b / mCA XIII
T4 construct: gene Ca13; recombinant, obtained in-house
T4 sequence (Q9D6N1 whole entry): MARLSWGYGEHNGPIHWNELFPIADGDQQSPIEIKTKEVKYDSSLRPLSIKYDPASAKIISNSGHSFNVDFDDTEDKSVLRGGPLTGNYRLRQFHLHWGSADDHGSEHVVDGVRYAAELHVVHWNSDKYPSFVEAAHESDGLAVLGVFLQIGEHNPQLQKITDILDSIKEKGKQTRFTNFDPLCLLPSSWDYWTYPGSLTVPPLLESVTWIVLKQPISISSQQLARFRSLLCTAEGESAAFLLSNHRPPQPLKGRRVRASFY
Source text: stopped-flow CO2 hydration on mCA XIII

hCA I [1] = target: T5, hCA I (Homo sapiens, UniProt P00915)
T5 construct: gene CA1; recombinant, obtained in-house
T5 sequence (P00915 2-261): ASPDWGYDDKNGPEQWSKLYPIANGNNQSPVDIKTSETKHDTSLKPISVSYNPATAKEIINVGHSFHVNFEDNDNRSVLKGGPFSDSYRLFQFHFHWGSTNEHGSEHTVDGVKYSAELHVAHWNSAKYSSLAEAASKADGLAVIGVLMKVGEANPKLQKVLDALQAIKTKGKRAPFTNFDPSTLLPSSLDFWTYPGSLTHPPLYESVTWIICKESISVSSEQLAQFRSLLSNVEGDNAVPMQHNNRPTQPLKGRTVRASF

hCA IX = target: T6, hCA IX (Homo sapiens, UniProt Q16790)
T6 construct: gene CA9; recombinant, obtained in-house
Source text: stopped-flow CO2 hydration on hCA IX

hCA XII = target: T7, hCA XII (Homo sapiens, UniProt O43570)
T7 construct: gene CA12; recombinant, obtained in-house
T7 sequence (O43570 30-289 limits assumed): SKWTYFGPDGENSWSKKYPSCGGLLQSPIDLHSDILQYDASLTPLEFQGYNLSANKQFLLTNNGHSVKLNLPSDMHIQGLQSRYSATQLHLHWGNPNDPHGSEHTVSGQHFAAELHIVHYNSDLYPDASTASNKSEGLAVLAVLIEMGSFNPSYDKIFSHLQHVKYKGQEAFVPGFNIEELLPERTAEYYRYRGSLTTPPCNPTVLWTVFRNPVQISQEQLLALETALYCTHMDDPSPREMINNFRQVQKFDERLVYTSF

hCA III = target: T8, hCA III (Homo sapiens, UniProt P07451); details: read-out: KI (μM)^a^,^b / hCA III
T8 construct: gene CA3; recombinant, obtained in-house
T8 sequence (P07451 2-260): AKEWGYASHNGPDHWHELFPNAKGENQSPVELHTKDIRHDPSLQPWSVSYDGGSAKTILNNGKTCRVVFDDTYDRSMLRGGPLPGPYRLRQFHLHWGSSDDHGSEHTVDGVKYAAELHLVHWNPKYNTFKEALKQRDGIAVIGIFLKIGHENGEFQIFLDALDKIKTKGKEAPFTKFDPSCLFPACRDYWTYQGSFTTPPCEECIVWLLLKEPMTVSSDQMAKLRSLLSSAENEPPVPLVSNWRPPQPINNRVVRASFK
Source text: stopped-flow CO2 hydration on hCA III

hCA VI = target: T9, hCA VI (Homo sapiens, UniProt P23280); details: read-out: KI (μM)^a^,^b / hCA VI
T9 construct: gene CA6; recombinant, obtained in-house
T9 sequence (P23280 18-308): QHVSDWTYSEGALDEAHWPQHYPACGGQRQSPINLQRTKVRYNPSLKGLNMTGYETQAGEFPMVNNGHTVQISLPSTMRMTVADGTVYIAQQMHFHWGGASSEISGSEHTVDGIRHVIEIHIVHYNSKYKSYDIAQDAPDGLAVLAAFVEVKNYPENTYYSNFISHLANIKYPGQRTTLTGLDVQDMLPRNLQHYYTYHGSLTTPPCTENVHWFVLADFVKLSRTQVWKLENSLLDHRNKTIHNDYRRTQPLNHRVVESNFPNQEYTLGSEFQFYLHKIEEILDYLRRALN
Source text: stopped-flow CO2 hydration on hCA VI

hCA XIV = target: T10, hCA XIV (Homo sapiens, UniProt Q9ULX7); details: read-out: KI (μM)^a^,^b / hCA XIV
T10 construct: gene CA14; recombinant, obtained in-house
T10 sequence (Q9ULX7 16-290 limits assumed): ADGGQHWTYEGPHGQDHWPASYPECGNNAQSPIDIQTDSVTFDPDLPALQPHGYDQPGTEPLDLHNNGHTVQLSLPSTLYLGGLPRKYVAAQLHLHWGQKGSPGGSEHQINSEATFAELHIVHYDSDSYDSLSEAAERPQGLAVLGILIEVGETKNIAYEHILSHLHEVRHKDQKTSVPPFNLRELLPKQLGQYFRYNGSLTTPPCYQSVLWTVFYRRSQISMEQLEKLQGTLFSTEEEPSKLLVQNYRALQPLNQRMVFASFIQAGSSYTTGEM
Source text: stopped-flow CO2 hydration on hCA XIV

hCA IV = target: T11, hCA IV (Homo sapiens, UniProt P22748); details: read-out: KI (μM)^a^,^b / hCA IV
T11 construct: gene CA4; recombinant, obtained in-house
T11 sequence (P22748 19-284): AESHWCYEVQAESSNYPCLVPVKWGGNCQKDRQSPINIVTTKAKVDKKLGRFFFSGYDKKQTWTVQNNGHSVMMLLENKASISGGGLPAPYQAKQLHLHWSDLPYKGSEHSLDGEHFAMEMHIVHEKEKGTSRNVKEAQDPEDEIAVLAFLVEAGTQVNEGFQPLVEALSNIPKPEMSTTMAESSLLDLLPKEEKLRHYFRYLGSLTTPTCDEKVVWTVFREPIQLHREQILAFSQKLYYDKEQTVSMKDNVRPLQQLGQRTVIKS
Source text: stopped-flow CO2 hydration on hCA IV

hCA VB = target: T12, hCA VB (Homo sapiens, UniProt Q9Y2D0); details: read-out: KI (μM)^a^,^b / hCA VB
T12 construct: gene CA5B; recombinant, obtained in-house
T12 sequence (Q9Y2D0 34-317): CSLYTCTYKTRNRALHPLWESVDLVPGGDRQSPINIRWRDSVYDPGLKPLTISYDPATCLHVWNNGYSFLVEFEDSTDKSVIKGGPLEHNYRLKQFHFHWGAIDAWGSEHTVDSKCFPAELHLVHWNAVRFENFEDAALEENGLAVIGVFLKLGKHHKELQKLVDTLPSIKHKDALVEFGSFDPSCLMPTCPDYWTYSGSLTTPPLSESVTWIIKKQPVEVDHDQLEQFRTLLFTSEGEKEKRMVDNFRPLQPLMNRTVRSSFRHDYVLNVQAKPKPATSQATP
Source text: stopped-flow CO2 hydration on hCA VB

hCA I [2] = target: T5, hCA I; details: CO2 1.7-17 mM, 20 mM Hepes pH 7.5, 20 mM Na2SO4, 15 min preincubation, room temperature; unreliable: table and text (69.8) disagree
Source text: stopped-flow CO2 hydration on hCA I

[3] = read-out: KI (μM)^a^,^b / hCA II
[4] = read-out: KI (μM)^a^,^b / hCA I
[5] = read-out: KI (μM)^a^,^b / hCA IX^c
[6] = read-out: KI (μM)^a^,^b / hCA XII^c
[7] = CO2 1.7-17 mM, 20 mM Hepes pH 7.5, 20 mM Na2SO4, 15 min preincubation, room temperature, read-out: KI (μM)^a^,^b / hCA I

T1 sequence (P35218 39-305): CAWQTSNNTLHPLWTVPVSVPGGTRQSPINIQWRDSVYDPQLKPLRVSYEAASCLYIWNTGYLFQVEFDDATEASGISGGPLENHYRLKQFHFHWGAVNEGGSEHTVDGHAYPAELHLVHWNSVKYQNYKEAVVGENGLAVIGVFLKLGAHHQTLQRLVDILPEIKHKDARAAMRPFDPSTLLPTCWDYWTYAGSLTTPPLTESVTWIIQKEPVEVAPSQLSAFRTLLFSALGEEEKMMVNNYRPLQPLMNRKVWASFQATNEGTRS

Ki (hCA VA) | Ki (hCA II; [3]) | Ki (hCA VII) | Ki (hCA I [1]; [4]) | Ki (hCA IX; [5]) | Ki (hCA XII; [6]) | Ki (hCA III) | Ki (hCA VI) | Ki (hCA XIV) | Ki (hCA IV) | Ki (hCA VB) | SMILES | further results
80.9 µM | 9.3 µM | 7.93 µM | 8.65 µM | 9.55 µM | 6.45 µM | 6.63 µM | 8.8 µM | 8.79 µM | 9.1 µM | 79.8 µM | O=S(=O)(O)c1ccccc1 [compound 1, benzenesulphonic acid] | Ki (mCA XIII): 8.72 µM
7.75 µM | 5.31 µM | 8.56 µM |  | 51.7 µM | 2.42 µM | 6.28 µM | 74.4 µM | 3.81 µM | 78.4 µM | 95.2 µM | NNS(=O)(=O)c1ccccc1 [compound 3, N-amino sulphonamide 3] | Ki (mCA XIII): 5.96 µM; KI (μM)^a^,^b / hCA I (hCA I [2]): 9.8 µM
6.7 µM | 8.96 µM | 9.56 µM | > 1000 µM | 64.3 µM | 8.32 µM | 5.72 µM | 27 µM | 1.57 µM | 39.5 µM | 10.7 µM | CONS(=O)(=O)c1ccccc1 [compound 5, N-methoxysulphonamide 5] | 
5.28 µM | 5.47 µM | 8.73 µM | 2.73 µM | 60.3 µM | 1.53 µM | 4.42 µM | 86.2 µM | 1.66 µM | 24.6 µM | 67.9 µM | O=S(=O)(NO)c1ccccc1 [compound 4, N-hydroxysulphonamide 4] | 

The remaining lines, values behind:

SMILES | Ki (hCA VA) | Ki (hCA II; [3]) | Ki (hCA VII) | Ki (hCA I [1]; [4]) | Ki (hCA IX; [5]) | Ki (hCA XII; [6]) | Ki (hCA III) | Ki (hCA VI) | Ki (hCA XIV) | Ki (hCA IV) | Ki (hCA VB) | further results
O=C(NO)c1ccccc1 [compound 9, hydroxamic acid 9] | 67.4 µM |  | 70.7 µM |  |  |  | 44.8 µM | 78.1 µM | 0.94 µM | 84.7 µM | 53.6 µM | Ki (hCA II; CO2 1.7-17 mM, 20 mM Hepes pH 7.5, 20 mM Na2SO4, 15 min preincubation, room temperature, read-out: KI (μM)^a^,^b / hCA II): 179 µM; Ki (hCA I [1]; [7]): 83.1 µM; Ki (hCA IX; CO2 1.7-17 mM, 20 mM Hepes pH 7.5, 20 mM Na2SO4, 15 min preincubation, room temperature, read-out: KI (μM)^a^,^b / hCA IX^c): 45.9 µM
NS(=O)(=O)c1ccccc1 [compound 2, benzenesulphonamide] | 1.68 µM |  |  |  |  |  | 2.26 µM | 0.097 µM | 0.092 µM | 7.96 µM | 8.82 µM | Ki (mCA XIII): 0.1 µM; Ki (hCA IX; read-out: KI (μM)^a^,^b / hCA VI): 0.097 µM
NC(=O)Oc1ccccc1 [7a, carbamate 7a] |  |  |  |  |  |  |  |  |  |  |  | Ki (hCA II; read-out: hCA II): 110 µM; Ki (hCA I [1]; read-out: hCA I): 720 µM; Ki (hCA IX; read-out: hCA IX): 10.1 µM; Ki (hCA XII; read-out: hCA XII): 2.81 µM
NC(=O)c1ccccc1 [compound 7, carboxamide 7] | 46.8 µM | 93.2 µM | 76.8 µM | 324 µM | 3.67 µM | 11.2 µM | 35.7 µM | 82.6 µM | 27 µM | 381 µM | 83.1 µM | 
NNC(=O)c1ccccc1 [compound 8, hydrazide 8] | 59.3 µM | 231 µM | 76.7 µM | 91.2 µM | 48.4 µM | 45 µM | 40.2 µM | 63.5 µM | 0.99 µM | 335 µM | 75.9 µM | 
NS(=O)(=O)Nc1ccccc1 [2b, sulphamide 2b] |  |  |  |  |  |  |  |  |  |  |  | Ki (hCA IX; read-out: hCA IX): 0.071 µM
O=C(O)c1ccccc1 [compound 6, benzoic acid] | 7.12 µM | 30.1 µM | 92.2 µM |  | 66.5 µM | 20.4 µM | 35.7 µM | 91.6 µM | 0.98 µM | 434 µM | 9.6 µM | Ki (hCA I [1]; [7]): 730 µM
CONC(=O)c1ccccc1 [compound 10, methylated hydroxamate 10] | 89.1 µM | 341 µM | 72.2 µM | 72.5 µM | 57.5 µM | 28.5 µM | 37.3 µM | 89.9 µM | 10 µM | 111 µM | 57.3 µM | 
